What all share (format): cell-based
Experiment [1] deals with mouse leukemia L1210 culture cells. The experiment in a line: inhibition of propagation (50% growth inhibiting concentration) of mouse leukemia L1210 culture cells. The conditions noted are these: read-out: 50% Inhibiting Concentration (IC50) Cell Growth Inhibition. As to the method: (§1) Activity of inhibition propagation of mouse leukemia L1210 culture cells and of inhibition synthesis of nucleic acid in the cells:
L1210 cells (5×10^4 /ml) were inoculated in RPMI 1640 medium (Rose Wellberg Laboratory) containing 20% calf serum, and the compound of the present invention (as indicated in Table 1 below) was added thereto in a concentration of from 0.0005 to 50.0 μg/ml. Thus the cells were incubated in a CO2 incubator at 37° C. for 48 hours, and the 50% growth inhibiting concentration relative to the control group was obtained. The compound of the present invention was dissolved in M/50 acetic acid (pH 3.0) in a concentration of […] and then diluted with Dulbecco PBS (-) (manufactured by Nissui Pharmaceutical Co.), before being added to the medium.

For experiment [2] the test system is unchanged. In words: inhibition of RNA synthesis in L1210 culture cells (14C-uridine uptake). The note with it: 10% calf serum RPMI 1640, label added 15 minutes after compound, further 60 minutes at 37° C., read-out: 50% Inhibiting Concentration (IC50) RNA Synthesis Inhibition. As for the experimental part:
as §1
(§2) Then a solution of the compound of the present invention prepared as mentioned above was added to the medium in a different concentration. 15 minutes after the addition, ^14 C-uridine (0.05 μCi/ml) or ^14 C-thymidine (0.05 μCi/ml) was added and the medium was further incubated at 37° C. for an additional 60 minutes. A cold 10% trichloroacetic acid (TCA) was added to the reaction solution so that the reaction was stopped and the acid-insoluble substance was precipitated. This was washed twice with a cold 5% TCA and then dissolved in formic acid. Then the radioactivity of the resulting solution was measured, and the 50% uptake inhibiting concentration was obtained from the radioactivity uptake ratio relative to the control group.

Experiment [3] shares this test system. In words: inhibition of DNA synthesis in L1210 culture cells (14C-thymidine uptake). The conditions noted are these: 10% calf serum RPMI 1640, label added 15 minutes after compound, further 60 minutes at 37° C., read-out: 50% Inhibiting Concentration (IC50) DNA Synthesis Inhibition. As to the method:
as §1, §2

[4] abbreviates: L1210 cells, RPMI 1640 with 20% calf serum, 37° C., 48 hours.

Each structure is given as a SMILES string. ≈ marks a conversion by molar mass, not a printed value.

For the molecule `CCC1(O)CC(OC2CC(N)C(OC3CCC(O)C(C)O3)C(C)O2)c2c(O)c3c(c(O)c2C1O)C(=O)c1cccc(O)c1C3=O` (stereo not drawn) [CG15A], the IC50 stood at 0.002 µg/mL (≈ 0.00318 µM) in experiment [1] (setting [4]), 3 µg/mL (≈ 4.76 µM) in experiment [2] and 1.2 µg/mL (≈ 1.91 µM) in experiment [3].

Regarding `CCC1(O)CC(OC2CC(N)C(OC3CC(O)C(O)C(C)O3)C(C)O2)c2c(O)c3c(c(O)c2C1C(=O)OC)C(=O)c1cccc(OC)c1C3=O` (stereo not drawn) [CG19B], the IC50 in experiment [2] and in experiment [3] was 10 µg/mL (≈ 14.3 µM) each time.

Take `CC1OC(OC2C(N)CC(OC3CC(O)(C(C)O)Cc4c(O)c5c(c(O)c43)C(=O)c3c(O)cccc3C5=O)OC2C)CC(O)C1O` (stereo not drawn) [CG20B]: the IC50 came to 5 µg/mL (≈ 7.74 µM) in experiment [2] and 10 µg/mL (≈ 15.5 µM) in experiment [3].

`CCC1(O)CC(OC2CC(N)C(OC3CCC(O)C(C)O3)C(C)O2)c2c(O)c3c(c(O)c2C1C(=O)OC)C(=O)c1cccc(O)c1C3=O` (stereo not drawn) [CG17A]: the IC50 in experiment [1] (setting [4]) worked out at 0.5 µg/mL (≈ 0.744 µM); in experiment [2] it was 1.1 µg/mL (≈ 1.64 µM); in experiment [3], 3.3 µg/mL (≈ 4.91 µM).

`CCC1(O)CC(OC2CC(NC)C(OC3CCC(O)C(C)O3)C(C)O2)c2c(O)c3c(c(O)c2C1O)C(=O)c1cccc(O)c1C3=O` (stereo not drawn) [CG22A]: the IC50 in experiment [2] was determined as 1.4 µg/mL (≈ 2.17 µM); in experiment [3], 0.87 µg/mL (≈ 1.35 µM).

Regarding `CCC1(O)CC(OC2CC(N)C(OC3CCC(O)C(C)O3)C(C)O2)c2c(O)c3c(c(O)c2C1C(=O)OC)C(=O)c1cccc(OC)c1C3=O` (stereo not drawn) [CG19A], the IC50 in experiment [1] (setting [4]) was found to be 1 µg/mL (≈ 1.46 µM); in experiment [2] it was 1.3 µg/mL (≈ 1.9 µM); in experiment [3], 4.8 µg/mL (≈ 7 µM).

`CCC1(O)CC(OC2CC(N)C(OC3CC(O)C(O)C(C)O3)C(C)O2)c2c(O)c3c(c(O)c2C1C(=O)OC)C(=O)c1cccc(O)c1C3=O` (stereo not drawn) [CG17B]: the IC50 turned out to be 1.4 µg/mL (≈ 2.04 µM) in experiment [1] (setting [4]), 2.3 µg/mL (≈ 3.34 µM) in experiment [2] and 10 µg/mL (≈ 14.5 µM) in experiment [3].

On to `CCC1(O)CC(OC2CC(N(C)C)C(OC3CCC(O)C(C)O3)C(C)O2)c2c(O)c3c(c(O)c2C1O)C(=O)c1cccc(O)c1C3=O` (stereo not drawn) [CG21A], for which the IC50 in experiment [2] came out at 0.18 µg/mL (≈ 0.274 µM); in experiment [3], 0.38 µg/mL (≈ 0.578 µM).

Turning to `CC1OC(OC2C(N)CC(OC3CC(O)(C(C)O)Cc4c(O)c5c(c(O)c43)C(=O)c3c(O)cccc3C5=O)OC2C)CCC1O` (stereo not drawn) [CG20A], the IC50 in experiment [2] and in experiment [3] was 1.2 µg/mL (≈ 1.91 µM) in each case.

With `CCC1(O)CC(OC2CC(N)C(OC3CC(O)C(O)C(C)O3)C(C)O2)c2c(O)c3c(c(O)c2C1O)C(=O)c1cccc(O)c1C3=O` (stereo not drawn) [CG15B], the IC50 stood at 0.04 µg/mL (≈ 0.062 µM) in experiment [1] (L1210, 48 h); 2.5 µg/mL (≈ 3.87 µM) in experiment [2]; 4.6 µg/mL (≈ 7.12 µM) in experiment [3].

Regarding `CCC1(O)CC(OC2CC(NC)C(OC3CC(O)C(O)C(C)O3)C(C)O2)c2c(O)c3c(c(O)c2C1O)C(=O)c1cccc(O)c1C3=O` (stereo not drawn) [CG22B], the results for the IC50 in experiment [2] and in experiment [3] were 10 µg/mL (≈ 15.2 µM) and 5 µg/mL (≈ 7.58 µM), respectively.

The values are drawn from US4918172A, “Anthracycline antibiotics” (Sanraku Incorporated, priority 1987, dated 1990).
